Measurements from patent US20230124095A1 (AMORPHICAL LTD., priority 2020, published 2023).

System: Cathepsin B
Test: Cathepsin B activity in lysate of LNCaP clone FGC cells
Assay type: cell-based, human
Details: 4 passages in supplemented medium

[Ca+2].[Cl-].[Cl-] [CaCl2, calcium chloride]
reduction of Cathepsin B activity compared to untreated control: 16%
